According to PubChem BioAssay (NCI):
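Exposure lasted 48 hours, with cells grown in 96-well plates and compounds tested at five concentrations. GI50: concentration for 50% inhibition of growth. TGI: concentration producing complete growth inhibition.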

Columns and labels:
Assay in all cases: NCI tumour cell line growth inhibition, 48 h
MALME-3M melanoma = system: MALME-3M melanoma
SR leukemia = system: SR leukemia
OVCAR-3 ovarian = system: OVCAR-3 ovarian
NCI-H460 lung = system: NCI-H460 lung
UACC-62 melanoma = system: UACC-62 melanoma
SF-295 CNS = system: SF-295 CNS
MOLT-4 leukemia = system: MOLT-4 leukemia
HOP-62 NSCLC = system: HOP-62 NSCLC
KM12 colon = system: KM12 colon
M14 melanoma = system: M14 melanoma
OVCAR-8 ovarian = system: OVCAR-8 ovarian
TK-10 renal = system: TK-10 renal
SK-MEL-2 melanoma = system: SK-MEL-2 melanoma
EKVX NSCLC = system: EKVX NSCLC
HCT-116 colon = system: HCT-116 colon
SK-MEL-5 melanoma = system: SK-MEL-5 melanoma
NCI-H226 lung = system: NCI-H226 lung
BT-549 breast = system: BT-549 breast
MDA-MB-231 breast = system: MDA-MB-231 breast
SN12C renal = system: SN12C renal
OVCAR-4 ovarian = system: OVCAR-4 ovarian
DU-145 prostate = system: DU-145 prostate
SK-MEL-28 melanoma = system: SK-MEL-28 melanoma
RXF 393 renal = system: RXF 393 renal
IGROV1 ovarian = system: IGROV1 ovarian
MCF7 breast = system: MCF7 breast
786-0 renal = system: 786-0 renal
SNB-75 CNS = system: SNB-75 CNS
SNB-19 CNS = system: SNB-19 CNS
HCT-15 colon = system: HCT-15 colon

CN1CCN(Cc2ccc(NC(=O)c3cncc(C#Cc4cnc5ccc(N[C@@H]6CCOC6)nn45)c3)cc2C(F)(F)F)CC1
TGI (MALME-3M melanoma): 0.299 µM | GI50 (SR leukemia): 0.0992 µM | TGI (SR leukemia): 7.32 µM | GI50 (OVCAR-3 ovarian): 0.125 µM | TGI (OVCAR-3 ovarian): 0.509 µM | GI50 (NCI-H460 lung): 0.104 µM | TGI (NCI-H460 lung): 0.374 µM | GI50 (UACC-62 melanoma): 0.156 µM | TGI (UACC-62 melanoma): 0.539 µM | GI50 (SF-295 CNS): 0.0888 µM | TGI (SF-295 CNS): 0.587 µM | GI50 (MOLT-4 leukemia): 0.0266 µM | TGI (MOLT-4 leukemia): 0.919 µM | GI50 (HOP-62 NSCLC): 0.104 µM | TGI (HOP-62 NSCLC): 0.355 µM | GI50 (KM12 colon): < 0.0097 µM | TGI (KM12 colon): 0.761 µM | GI50 (M14 melanoma): 0.0784 µM | TGI (M14 melanoma): 0.245 µM | GI50 (OVCAR-8 ovarian): 0.189 µM | TGI (OVCAR-8 ovarian): 0.963 µM | GI50 (TK-10 renal): 0.245 µM | TGI (TK-10 renal): 0.646 µM | GI50 (SK-MEL-2 melanoma): 0.173 µM | TGI (SK-MEL-2 melanoma): 0.318 µM | GI50 (EKVX NSCLC): 0.12 µM | TGI (EKVX NSCLC): 0.383 µM | GI50 (HCT-116 colon): 0.0486 µM | TGI (HCT-116 colon): 0.64 µM | GI50 (SK-MEL-5 melanoma): 0.193 µM | TGI (SK-MEL-5 melanoma): 0.556 µM | GI50 (NCI-H226 lung): 0.0144 µM | TGI (NCI-H226 lung): 0.218 µM | GI50 (BT-549 breast): 0.169 µM | TGI (BT-549 breast): 0.631 µM | GI50 (MDA-MB-231 breast): 0.0423 µM | TGI (MDA-MB-231 breast): 0.289 µM | GI50 (SN12C renal): 0.034 µM | TGI (SN12C renal): 0.271 µM | GI50 (OVCAR-4 ovarian): 0.138 µM | TGI (OVCAR-4 ovarian): 0.646 µM | GI50 (DU-145 prostate): 0.148 µM | TGI (DU-145 prostate): 0.557 µM | GI50 (SK-MEL-28 melanoma): 0.193 µM | TGI (SK-MEL-28 melanoma): 0.629 µM | GI50 (RXF 393 renal): 0.0713 µM | TGI (RXF 393 renal): 0.217 µM | GI50 (IGROV1 ovarian): 0.107 µM | TGI (IGROV1 ovarian): 0.531 µM | GI50 (MCF7 breast): 0.0518 µM | TGI (MCF7 breast): 0.518 µM | GI50 (786-0 renal): 0.235 µM | TGI (786-0 renal): 0.712 µM | GI50 (SNB-75 CNS): 0.126 µM | TGI (SNB-75 CNS): 0.3 µM | GI50 (SNB-19 CNS): 0.222 µM | TGI (SNB-19 CNS): 0.769 µM | GI50 (HCT-15 colon): 0.335 µM | TGI (HCT-15 colon): 1.37 µM
